Reference: patent US20140322344A1, “VACCINE PREPARATION FOR CANCER TREATMENT” (priority 2011, published 2014)

What was measured:
[1] = tested on: CD8-positive killer T cells and CD4-positive helper T cells specific to MAGE-A4 epitopes; test: Induction of antigen-specific T cells in immunized mice, spleen cells, intracellular cytokine staining (MAGE-A4 peptides); type: in vivo, BALB/c mice; details: s.c. twice at one week intervals, FIG. 1
Experimental: […] For administration, they were subcutaneously injected into the backs of the mice twice at one week intervals. For one dose of the hydrophobized polysaccharide-synthetic long peptide complex, a dosage corresponding to 0.1 mg of the synthetic long peptide complex was administered. Either the CpG oligo DNA or the poly-IC RNA as the immunopotentiating agent was subcutaneously injected at a dose of 0.05 mg proximal to the administration site of the hydrophobized polysaccharide-synthetic long peptide.
One week after the final administration, spleen cells were isolated from the treated mice in the following manner. The spleen was isolated from the mouse and washed in RPMI1640 medium to remove blood. The spleen was ground using a slide glass, and then the free cells were collected in RPMI1640 medium. After centrifugation (400×g, 5 min., 4° C.), the supernatant was removed, to which 2 mL of ACK solution was added to treat the cells for 1 minute. 18 mL of RPMI1640 medium was added and centrifugation (400×g, 5 min., 4° C.) was carried out. […] After the number of the cells was counted, the cells were suspended in RPMI1640 medium containing 10% fetal bovine serum (FBS) so that the cell concentration was 1×10^7 cells/mL. […]
The cells were analyzed with a flow cytometer (FACS Canto II, BD Biosciences Company) using the associated analysis software (FACSDiva).

[2] = tested on: mouse colon cancer cells CT 26 into which the MAGE-A4 gene was stably introduced; test: Tumor rejection test, CT26/MAGE-A4; type: in vivo, BALB/c mice; details: co-administered s.c. with CpG oligo DNA 7 days before tumor implantation; p<0.0001; FIG. 7
Experimental: A mouse colon cancer cell CT26 cell line into which the MAGE-A4 gene was stably introduced or a mouse fibrosarcoma CMS5a cell line which expresses mERK2 was subcutaneously implanted in the following manner. The CT26 cell line or CMS5a cell line, which had been cultured in a T75 flask (Nunc Co., Ltd.), was washed with PBS; then the cells were removed with PBS containing 0.5% trypsin and collected in RPMI1640 medium containing 10% FBS. After centrifugation (400×g, 5 min., 4° C.), the supernatant was removed, washed twice with RPMI1640 medium, then re-suspended in RPMI1640 medium at a concentration of 1×10^6 cells/100 μL, and subcutaneously implanted into BALB/c mice in an amount of 100 μL/individual. Subsequently, their tumor areas were measured over time. A comparison of the data in the tumor rejection test was performed according to Student's t-test using MS Excel (Microsoft).

Substance: MAGE-A4 p264:40: synthetic long peptide, 40 aa, from MAGE-A4, SEQ ID NO: 1: GSNPARYEFLWGPRALAETSYVKVLEHVVRVNARVRIAYP (Human; MAGE-A4 p26440)
- induction of killer T cells and helper T cells specific to the peptide ([1]; administered alone, no immunopotentiating agent): are not induced
- induction of antigen-specific killer T cells and helper T cells ([1]; co-administered with CpG oligo DNA): the intended T cells are not induced
- tumor growth inhibition as compared to PBS administration group [2]: significant inhibition
